From publication PMC5428013, “Peptide-Au Clusters Induced Tumor Cells Apoptosis via Targeting Glutathione Peroxidase-1: The Molecular Dynamics Assisted Experimental Studies” (Scientific Reports, 2017)
Entries after “also recorded” stand apart in the source; their conditions may differ.

How the values were obtained:
PARP = assay: Cleaved PARP level, western blotting; assay type: cell-based, human; settings: serial Au doses (0, 100, 200, 400, 800 μM), 48 h
Protocol: The expression of GPx-1, caspase-3 and PARP from Au25P1_9 treated A549 cells were analyzed by western blotting. A549 cells were prior seeded on 6-well plate (at the density of 1 × 10^5 cells/well) for 24 h. Then the medium was discarded and fresh culture medium with Au25P1_9 at different doses was added to make cells exposed to final Au doses at 0, 100, 200, 400 and 800 μM, respectively. After another 48 h incubation, the cells were harvested and lysed by cell lysis buffer for Western and IP (containing 20 mM Tris-HCl, pH7.5, 150 mM NaCl, 1% Triton X-100, sodium pyrophosphate, β-glycerophosphate, EDTA, Na3VO4 and leupeptin), protease inhibitor cocktail tablet and 1 mM PMSF for 15 min on a shaker at 4 °C. The lysed cells were collected and centrifuged for 15 min at 12,000 g to get total protein of cells. The protein dose of each sample was prior quantified, and then loading buffer was added. After boiling for 5 min, the protein samples with equal amount were separated on 12% SDS polyacrylamide gel electrophoresis and then transferred onto the polyvinylidene difluoride (PVDF) membrane. Membrane was blocked by 5% nonfat dried milk prepared in tris(hydroxymethyl)amin omethane-NaCl-Tween 20 (TBST) at room temperature for 1 h, and then incubated with primary antibodies specific to β-actin, Caspase-3, PARP and GPx-1 at 4 °C overnight, respectively. […]

GPx-1 = GPx-1 enzyme activity suppression in buffer; assay type: biochemical, bovine; settings: 10 min
Text: The peptides (N2H-CCYGGPEEEEEVG-COOH (named P1), NH2-CCYGGPDDDEDVG-COOH (named P2) and NH2-CCYGGPEEVEEVG-COOH (named P3)) were chemically synthesized by a solid phase method (China Peptides Co. Ltd, Purity: 98%). Hydrogen tetrachloroaurate (III) (HAuCl4·4H2O) was purchased from Sinopharm Chemical Reagent Co. Ltd. Sodium hydroxide (NaOH), nitric acid (HNO3), hydrochloric acid (HCl) and hydrogen peroxide (H2O2) were purchased from Beijing Chemical Reagent Co., China. Human non-small cell lung carcinoma cells (A549 cells), Henrietta Lacks strain of cancer cells (Hela cells) and human colon adenocarcinoma cells (HCT-8 cells) were from Cancer Institute and Hospital, Chinese Academy of Medical Sciences. Fetal bovine serum (FBS) and trypsin-EDTA were obtained from Gibco, USA. Penicillin-streptomycin solution, cell culture medium DMEM and RPMI 1640 were purchased from Hyclone. Hoechst 33342, LysoTracker®Green DND-26, and CM-H2DCFDA were from Molecular Probes, USA. NucView™ 488 Caspase-3 Assay Kit was bought from Biotium, USA. 5,5′,6,6′-tetrachloro-1,1′,3,3′-tetraethylbenzimidazolocarbocyanine iodide (JC-1), cell lysis buffer for Western and IP, phenylmethanesulfonyl fluoride (PMSF) and BCA Protein Assay Kit were obtained from Beyotime Institute of Biotechnology, China. Protease inhibitor cocktail tablets were from Roche Diagnostics, GmbH, Mannheim, Germany. Cell counting kit-8 (CCK-8) reagents and Annexin V-FITC/Propidium (PI) Apoptosis Detection Kit were purchased from Dojindo Laboratories, Japan. GPx from bovine erythrocytes […] was provided by Sigma Aldrich, USA. GPx Activity Colorimetric Assay Kit was provided by Biovision, USA. Anti-GPx-1 antibody was offered by Abcam, UK. PARP antibody, caspase-3 antibody and β-actin antibody were offered by Cell Signaling Technology, USA. Amicon ultra centrifugal filter devices (Merck Millipore, MWCO: 10 kDa) were used for purification steps. Ultrapure Millipore (Mini-Q) water (18.2 MΩ) was used throughout the experiments. […]
Pure GPx (lyophilized powder, ≥300 units/mg protein) were diluted by GPx sample buffer and incubated with peptide-Au clusters (Au25P1_9, Au25P2_9 and Au25P3_9) at a series of Au dose (0, 25, 100, 400 μM) for 10 min, respectively. […] The GPx activity of untreated samples was set as 100%, and that of peptide-Au clusters treated samples were expressed as a relative percentage of untreated ones.
Figure S12. Peptide-Au clusters treated GPx-1 activity measured in buffer solution. The decrease in NADPH absorbance measured at 340 nm during the oxidation of NADPH to NADP is the indicative of GPx activity,^1, 2 which is in a dose dependent manner in tube experiments when treated with serial doses of peptide-Au clusters.

GPx-1 activity (relative to untreated = 100%) (GPx-1; buffer, Au dose of 400 μM, GPx Activity Colorimetric Assay Kit, NADPH absorbance at 340 nm): 12%
Sequence: CCYGGPEEEEEVG [Au25P1_9, Au25 cluster coated by nine P1 peptides (…)]
cleaved PARP level (PARP): Au dose-dependent increase of cleaved caspases-3 and cleaved PARP levels
GPx-1 activity suppression in buffer (GPx-1; Au dose 0, 25, 100, 400 μM): exhibits the best suppression capacity for GPx-1; also recorded: the most effective candidate for suppression of GPx-1 activity in buffer and cells
